# Measurements: patent US12529022B2, “Human organ-on-chip models for predictive screening” (The Trustees of Columbia University in the City of New York, priority 2018, dated 2026)
# Assays:
# [1] = patients with other types of cancers; cited from earlier work
# [2] = test system: human cardiac OOC; experiment: Cardiac OOC calcium transients, isoproterenol response after linsitinib exposure; type: cell-based; conditions: tissues exposed to linsitinib, then 1 μM isoproterenol
# Description: Isoproterenol response: Samples were loaded with Fluo-4, AM, cell permeant (Invitrogen) in RPMI Medium 1630 supplemented with B27 for 30 min at 37° C. […] Videos were analysed in MATLAB using a custom script that calculated the temporal changes in calcium fluorescence intensity. Each frame was normalized to a baseline background region chosen by the user to give baseline-corrected changes in minimum and maximum fluorescence values for each frame. The temporal changes in fluorescence intensity were presented in calcium transient traces from which the measurements were obtained. The calcium transient timing was determined as the peak-to-peak values of two successive beats as defined by the peak maxima.
# Calcium transient traces were also analyzed 10 minutes after exposure to 1 μM isoproterenol hydrochloride, diluted in RPMI Medium 1630 supplemented with B27™.
# [3] = test system: human cardiac OOC; experiment: Cardiac OOC extracellular LDH cytotoxicity assay; type: cell-based; conditions: after linsitinib exposure
# Description: Tissues were randomly assigned to experimental groups. Medium was changed every day. Cardiac tissues were exposed to linsitinib for 3 days.
# Cell viability: Cancer cell viability was measured for GFP-Luciferase labelled cancer cells using ONE-Glo luciferase substrate that was prepared according to manufacturer's protocol (Promega). Samples were collected following 3, 7, and 21-day cycles of Linsitinib treatment. Cardiac cell viability was assessed through the Pierce LDH Cytotoxicity Assay Kit (Thermo Fisher Scientific). Samples were collected at 0 h, 1 h and 72 h.
# [4] = test system: ES model; experiment: Immunohistochemical Ki67 staining and TUNEL assay of the ES model; type: cell-based, human; conditions: ES model after linsitinib treatment
# Description: To assess apoptosis, paraffin embedded tissue sections were first deparaffinized with CitriSolv, rehydrated with graded series of ethanol washes, and then stained with a Click-iT® TUNEL Alexa Fluor® imaging assay (Thermo Fisher Scientific).
# [5] = test system: non-metastatic (RD-ES cell line derived) Ewing sarcoma OOC; experiment: Non-metastatic Ewing sarcoma OOC, luciferase luminescence (cancer cell number and viability); type: cell-based, human; conditions: 12 μM
# Description: Drug treatment experiments recapitulating the patient treatment regimens and the patient plasma concentration of 12 μM of linsitinib were then carried out on the nonmetastatic and metastatic TE-ES and OS models. FIGS. 42 and 43 are graphs illustrating non-metastatic (RD-ES cell line derived, FIG. 42) and metastatic (SK-N-MC cell line derived, FIG. 43) Ewing sarcoma OOCs were exposed to linsitinib (12 μM) according to the drug treatment regimen. Luminescence as a function of cancer cell number and viability was measured (mean±s.e.m., n=6 for day 3, and n=3 for day 7 and 21, biologically independent per group). Significance was determined by unpaired two-tailed Student's t test of treatment group at specific day with respective control; *P<0.05; **P<0.01; ***P<0.001. Tissue engineered bone tumor models: Using an established protocol, expanded MSCs were seeded into the bone matrix scaffolds (4 mm×4 mm×1 mm) at a concentration of 10^6 cells per scaffold, using 40 μL of medium. The cells were allowed to attach for 2 hours, and then supplemented with additional mesenchymal stem cell medium overnight. The following day, osteogenic differentiation of the seeded cells was initiated by addition of low glucose DMEM supplemented with 1 μM dexamethasone (Sigma-Aldrich), 10 mM β-glycerophosphate (SigmaAldrich), and 50 μM L-ascorbic acid-2-phosphate (Sigma Aldrich). Each scaffold was incubated in 4 mL of osteogenic media, with media changes three times a week, for 3 weeks, allowing for the MSCs to differentiate into functional, maturing osteoblasts. Two weeks following the initiation of osteogenic differentiation, aggregates of tumor cells were prepared as described previously. Briefly, 0.3×10^6 cells were used to form ES aggregates and 0.5×10^6 cells were used to form OS aggregates. After 1 week of culture, the primary bone tumor aggregates were infused into the differentiated osteoblastseeded bone scaffolds (3 aggregates per scaffold, placed apart of each other). Tumor models were established for each of the two ES cell types (non-metastatic RD-ES, metastatic SK-NMC) and three OS cell types (non-metastatic U2-OS and Saos2, metastatic KHOS/NP). TE-RD-ES were cultured in the RPMI medium, TE-U-2 OS in DMEM, TE-Saos2 in McCoy's 5A, and TESK-N-MC and TE-KHOS/NP both in EMEM. Scaffolds without aggregates were used as healthy bone controls for each tumor model (termed TE-bone) and were cultured in the respective cancer cell line medium. […] Cell viability: Cancer cell viability was measured for GFP-Luciferase labelled cancer cells using ONE-Glo luciferase substrate that was prepared according to manufacturer's protocol (Promega). […] Cardiac cell viability was assessed through the Pierce LDH Cytotoxicity Assay Kit (Thermo Fisher Scientific). […]
structure (smiles),measurement,setting,value
"C[C@]1(O)C[C@@H](c2nc(-c3ccc4ccc(-c5ccccc5)nc4c3)c3c(N)nccn32)C1 [linsitinib, Linsitinib (OSI-906)]",cardiotoxicity in clinical trials,[1],"proarrhythmic events, like tachycardia and atrial fibrillation"
same,inotropic response to isoproterenol,[2],inotropic responses were not observed
same,proarrhythmic events in calcium transients,[2],proarrhthymic events
same,extracellular lactate dehydrogenase (LDH),[3],increased levels
same,apoptosis by TUNEL assay,[4],increases in apoptosis
same,proliferation via Ki67-staining,[4],reduced proliferation
same,course of treated cancer cell population,[5]; 21-day treatment cycle,stopped expanding after the treatment
same,luminescence (cancer cell number and viability) vs control,[5]; day 3,significant drug response
same,luminescence (cancer cell number and viability) vs control,[5]; day 7,significant responses
same,luminescence (cancer cell number and viability) vs control,[5]; day 21,significant responses
